# Assays:
# [1] = test system: A/New York/18/2009 (H1N1); assay: microbe, parasite or virus in culture; assay type: cell-based; settings: Influenza A virus, H1N1, MDCK; read-out: Cell Protection Assay EC50 ± SD
# [2] = test system: A/Cambodia/0371/2007 (H1N1); assay: microbe, parasite or virus in culture; assay type: cell-based; settings: Influenza A virus, MDCK, read-out: Cell Protection Assay EC50 ± SD
smiles,measurement,setting,value
O=C(O)[C@H]1C2CCC(CC2)C1Nc1nc(-c2c[nH]c3ncc(F)cc23)ncc1F (some centres unmarked) [Compound (1)],EC50,[1],0.59 nM
same,EC50,[2],0.61 ± 0.33 nM
